Consider 18 compounds from patent US20210323977A1, “PYRROLIDINYL AMIDE COMPOUNDS FOR THE TREATMENT OF AUTOIMMUNE DISEASE” (Hoffmann-La Roche Inc., priority 2018, published 2021).

This experiment has as its target T1, human TLR9 (Homo sapiens, UniProt Q9NR96).
T1 sequence (Q9NR96 26-1032): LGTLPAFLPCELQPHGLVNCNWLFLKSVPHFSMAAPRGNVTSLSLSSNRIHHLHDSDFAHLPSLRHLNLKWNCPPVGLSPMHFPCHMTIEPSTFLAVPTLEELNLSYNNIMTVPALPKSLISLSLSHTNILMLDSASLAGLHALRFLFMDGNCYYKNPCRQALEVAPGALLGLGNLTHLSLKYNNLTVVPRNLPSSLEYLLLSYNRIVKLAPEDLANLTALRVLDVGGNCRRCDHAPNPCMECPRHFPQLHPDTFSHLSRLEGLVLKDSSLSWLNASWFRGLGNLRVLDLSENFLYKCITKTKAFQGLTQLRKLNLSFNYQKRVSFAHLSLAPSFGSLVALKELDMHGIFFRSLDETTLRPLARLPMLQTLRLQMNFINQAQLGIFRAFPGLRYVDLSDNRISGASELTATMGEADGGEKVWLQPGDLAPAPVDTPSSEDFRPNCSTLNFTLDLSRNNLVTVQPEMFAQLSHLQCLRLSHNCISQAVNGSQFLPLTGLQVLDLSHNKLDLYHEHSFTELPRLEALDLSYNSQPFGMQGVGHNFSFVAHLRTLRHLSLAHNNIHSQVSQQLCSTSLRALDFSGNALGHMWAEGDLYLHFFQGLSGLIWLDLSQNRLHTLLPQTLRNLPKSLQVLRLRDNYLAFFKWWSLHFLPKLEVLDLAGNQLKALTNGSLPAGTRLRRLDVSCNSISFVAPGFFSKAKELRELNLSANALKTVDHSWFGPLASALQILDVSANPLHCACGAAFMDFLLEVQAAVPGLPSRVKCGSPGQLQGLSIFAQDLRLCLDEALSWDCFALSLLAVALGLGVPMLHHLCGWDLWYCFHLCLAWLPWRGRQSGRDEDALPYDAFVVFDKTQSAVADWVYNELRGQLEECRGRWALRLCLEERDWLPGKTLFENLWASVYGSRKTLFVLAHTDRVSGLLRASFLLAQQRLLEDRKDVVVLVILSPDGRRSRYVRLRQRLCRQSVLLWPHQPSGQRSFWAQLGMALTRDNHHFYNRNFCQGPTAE
As to the kind of experiment: HEK293-Blue-hTLR-9 cells assay. To be noted: HEK293-Blue-hTLR9 cells, SEAP reporter, ODN2006 stimulation, 20 hrs. Type of experiment: cell-based. The text has this: HEK293-Blue-hTLR-9 Cells Assay:
A stable HEK293-Blue-hTLR-9 cell line was purchased from InvivoGen (Cat. #: hkb-htlh9, San Diego, Calif., USA). These cells were originally designed for studying the stimulation of human TLR9 by monitoring the activation of NF-κB. A SEAP (secreted embryonic alkaline phosphatase) reporter gene was placed under the control of the IFN-β minimal promoter fused to five NF-κB and AP-1-binding sites. The SEAP was induced by activating NF-κB and AP-1 via stimulating HEK-Blue hTLR9 cells with TLR9 ligands. Therefore the reporter expression was declined by TLR9 antagonist under the stimulation of a ligand, such as ODN2006 (Cat. #: tlrl-2006-1, Invivogen, San Diego, Calif., USA), for incubation of 20 hrs. The cell culture supernatant SEAP reporter activity was determined using QUANTI-Blue™ kit (Cat. #: rep-qb1, Invivogen, San Diego, Calif., USA) at a wavelength of 640 nm, a detection medium that turns purple or blue in the presence of alkaline phosphatase.
HEK293-Blue-hTLR9 cells were incubated at a density of 250,000-450,000 cells/mL in a volume of 170 μL in a 96-well plate in Dulbecco's Modified Eagle's medium (DMEM) containing 4.5 g/L glucose, 50 U/mL penicillin, […], […], 2 mM L-glutamine, 10% (v/v) heat-inactivated fetal bovine serum with addition of 20 sL test compound in a serial dilution in the presence of final DMSO at 1% and 10 sL of 20 uM ODN2006 in above DMEM, perform incubation under 37° C. in a CO2 incubator for 20 hrs. Then 20 sL of the supernatant from each well was incubated with 180 μL Quanti-blue substrate solution at 37° C. for 2 hrs and the absorbance was read at 620-655 nm using a spectrophotometer. The signalling pathway that TLR9 activation leads to downstream NF-x3B activation has been widely accepted, and therefore similar reporter assay was modified for evaluating TLR9 antagonist.
The term IC50 denotes the concentration needed to halve the response being measured. `N#Cc1ccc(N2CC(C(=O)NC[C@@H]3CNCCO3)C3(CC3)C2)c2nccnc12` (single isomer, unassigned) [Example 71A]: the 50% inhibitory concentration (IC50) was 3.8 µM.

Compound `O=C(NC1CC2CNCC2C1)C1CN(c2ccc(C(F)(F)F)c3nccnc23)CC12CC2` (stereo not drawn) [Example 21, N-(1,2,3,3a,4,5,6,6a-octahydrocyclopenta[c]pyrrol-5-yl)-5-[8-(trifluoromethyl)quinoxalin-5-yl]-5-azaspiro[2.4]heptane-7-carboxamide] came in with an IC50 of 14 µM.

Regarding `CN(C)CC1CC(NC(=O)C2CN(c3ccc(C(F)(F)F)c4nccnc34)CC23CC3)C1` (stereo not drawn) [Example 26, N-[3-[(dimethylamino)methyl]cyclobutyl]-5-[8-(trifluoromethyl)quinoxalin-5-yl]-5-azaspiro[2.4]heptane-7-carboxamide], the IC50 stood at 11.5 µM.

For the compound `N[C@@H]1C[C@H](NC(=O)C2CN(c3ccc(C(F)(F)F)c4nccnc34)CC23CC3)[C@@H]2C[C@@H]21` (stereo partly drawn) [Example 36, N-[(1R,2S,4R,5S)-4-amino-2-bicyclo[3.1.0]hexanyl]-5-[8-(trifluoromethyl)quinoxalin-5-yl]-5-azaspiro[2.4]heptane-7-carboxamide], the IC50 was 21.8 µM.

For `C[C@@H]1CN(c2ccc(C(F)(F)F)c3nccnc23)C[C@H]1C(=O)NC1CCN(C)CC1` [Example 25, (3S,4S)-4-Methyl-N-(1-methyl-4-piperidyl)-1-[8-(trifluoromethyl)quinoxalin-5-yl]pyrrolidine-3-carboxamide], it took 13.9 µM to reach half-maximal inhibition (IC50).

In turn, `N#Cc1ccc(N2C[C@H](C(=O)NC3CCN(C4CCNCC4)CC3)[C@@H](C(F)(F)F)C2)c2nccnc12` [Example 35, (3R,4R)-1-(8-Cyanoquinoxalin-5-yl)-N-[1-(4-piperidyl)-4-piperidyl]-4-(trifluoromethyl)pyrrolidine-3-carboxamide] gave an IC50 of 4.3 µM.

`CN1CCC(NC(=O)[C@H]2CN(c3ccc(C#N)c4nccnc34)C[C@@H]2C(F)(F)F)CC1` [Example 1, (3R,4R)-1-(8-cyanoquinoxalin-5-yl)-N-(1-methyl-4-piperidyl)-4-(trifluoromethyl) pyrrolidine-3-carboxamide] registered an IC50 of 5.2 µM.

`CN1CCC(NC(=O)[C@H]2CN(c3ccc(C(F)(F)F)c4nccnc34)C[C@@H]2C(F)(F)F)CC1` [Example 2, (3R,4R)—N-(1-methyl-4-piperidyl)-4-(trifluoromethyl)-1-[8-(trifluoromethyl)quinoxalin-5-yl]pyrrolidine-3-carboxamide] had a half-inhibitory concentration (IC50) of 5.5 µM.

Take `N[C@@H]1CCC[C@H](NC(=O)C2CN(c3ccc(C(F)(F)F)c4nccnc34)CC23CC3)C1` (relative stereo) [Example 43, Cis-N-(3-aminocyclohexyl)-5-[8-(trifluoromethyl)quinoxalin-5-yl]-5-azaspiro[2.4]heptane-7-carboxamide]: the IC50 is 17.9 µM.

In turn, `CN1CCC(NC(=O)[C@H]2CN(c3ccc(C#N)c4ncccc34)C[C@@H]2C(F)(F)F)CC1` [Example 4, (3R,4R)-1-(8-cyano-5-quinolyl)-N-(1-methyl-4-piperidyl)-4-(trifluoromethyl)pyrrolidine-3-carboxamide] registered an IC50 of 9.9 µM.

Regarding `C[C@H]1CN(c2ccc(C#N)n3nccc23)C[C@@H]1C(=O)NC1CCN(C)CC1` [Example 44, (3R,4R)-1-(7-cyanopyrazolo[1,5-a]pyridin-4-yl)-4-methyl-N-(1-methyl-4 piperidyl)pyrrolidine-3-carboxamide], inhibition was half-maximal at 9.1 µM (IC50).

The compound `N#Cc1ccc(N2CC(C(=O)NC3CCCNCC3)C(C(F)(F)F)C2)c2cccnc12` (single isomer, unassigned) [Example 30B, N-(azepan-4-yl)-1-(8-cyano-5-quinolyl)-4-(trifluoromethyl)pyrrolidine-3-carboxamide] registered a concentration for half-maximal inhibition (IC50) of 16.2 µM.

For the compound `C[C@@H]1CN(c2ccc(C#N)c3ncccc23)C[C@H]1C(=O)NC1CCN(C)CC1` (relative stereo) [Example 28], 6.4 µM corresponded to half-maximal inhibition (IC50).

For the compound `C[C@H]1CN(c2ccc(Cl)c3ncccc23)C[C@@H]1C(=O)NC1CCN(C)CC1` [Example 50, (3R,4R)-1-(8-chloro-5-quinolyl)-4-methyl-N-(1-methyl-4-piperidyl)pyrrolidine-3-carboxamide], the IC50 amounted to 3.4 µM.

`C[C@H]1CN(c2ccc(C#N)c3nccnc23)C[C@@H]1C(=O)NC1CCN(C)CC1` [Example 3, (3R,4R)-1-(8-cyanoquinoxalin-5-yl)-4-methyl-N-(1-methyl-4-piperidyl)pyrrolidine-3-carboxamide]: the midpoint of inhibition, the IC50, lay at 5.7 µM.

For `O=C(NC1C2CCC1CNC2)C1CN(c2ccc(C(F)(F)F)c3nccnc23)CC12CC2` (stereo not drawn) [Example 12, N-(3-azabicyclo[3.2.1]octan-8-yl)-5-[8-(trifluoromethyl)quinoxalin-5-yl]-5-azaspiro[2.4]heptane-7-carboxamide], inhibition was half-maximal at 1 µM (IC50).

For the compound `N#Cc1ccc(N2CC(C(=O)NCC3CNCCO3)C3(CC3)C2)c2nccnc12` (stereo not drawn) [Example 13, 5-(8-Cyanoquinoxalin-5-yl)-N-(morpholin-2-ylmethyl)-5-azaspiro[2.4]heptane-7-carboxamide], the concentration for half-maximal inhibition (IC50) was 2.1 µM.

Take `N#Cc1ccc(N2C[C@@H](C(F)(F)F)[C@H](C(=O)N[C@H]3CNC[C@H]3F)C2)c2cccnc12` [Example 47, Trans-1-(8-cyano-5-quinolyl)-N-[(3S,4R)-4-fluoropyrrolidin-3-yl]-4-(trifluoromethyl)pyrrolidine-3-carboxamide]: the IC50 came to 23.1 µM.
